Assay results as given in patent publication US20220257595A1, “MACITENTAN FOR USE IN TREATING PORTOPULMONARY HYPERTENSION” (ACTELION PHARMACEUTICALS LTD, priority 2019, published 2022).

Assays:
patients with PoPH [1] = assay: PORTICO: 6-minute walk test (6MWD); assay type: in vivo, human
Method: (iv) 6-minute walk test, including Borg dyspnea index: The 6MWT was performed at Screening, Baseline (Visit 2/Randomization), and then every Visit until EOT-DB or EOT-OL, whichever came last. It is a non-encouraged test that measures the distance walked by the patient in six minutes. It is important that for each individual patient the 6MWT was conducted under the same conditions throughout the study (e.g., same location, same tester, same time of day, with or without nasal oxygen therapy and where applicable with same flow rate as Baseline). The Borg dyspnea index was evaluated after each 6MWT. It rates dyspnea on a scale from 0 to 10.
Handling of missing data: For change from baseline to Weeks 4, 8 and 12 in 6MWD and WHO FC, the last available value (including baseline) was carried forward unless the patient died before, or on Day 42, 70, 98 (the upper limit treatment days of Weeks 4, 8 and 12 windows, respectively), in which case the following rules considering worst case were used to replace all the missing values from the week after death up to Week 12: • For 6MWD, worst fixed value was set to 0, • For WHO FC, worst fixed value was set to class IV, • For change from baseline to Week 12 in NT-proBNP, the same imputation rule as for PVR was applied as described herein.
Statistical analysis: The change from baseline to Week 12 in mRAP, mPAP, cardiac index, TPR and SVO2 were analyzed on the FAS (with imputation) using an ANCOVA with factors for treatment group, background PAH-specific therapy at baseline (Yes/No as per IXRS, randomization stratification factor), region (Europe/North America/Latin America as per IXRS, randomization stratification factor) and a covariate for baseline corresponding variable. Other RHC variables are listed only. WHO FC is summarized on the FAS (with imputation) by time point and treatment group using frequency tables. Changes from baseline in WHO FC were dichotomized as worsening (i.e., change >0) versus no change or improvement (i.e., change ≤0). Worsening was analyzed using a logistic regression model (exact) with covariates for treatment group, background PAH-specific therapy at baseline (Yes/No as per IXRS, randomization stratification factor) and region (Europe/North America/Latin America as per IXRS, randomization stratification factor). 6MWD is summarized on the FAS (with imputation) by time point and treatment group using descriptive statistics. Change from baseline to each time point is summarized similarly. Change from baseline in 6MWD (up to Week 12) was analyzed using a mixed-effect model repeated measure (MMRM) with factors for treatment group, time point, treatment by time interaction, background PAH-specific therapy at baseline (Yes/No as per IXRS, randomization stratification factor) and region (Europe/North America/Latin America as per IXRS, randomization stratification factor), and covariates for baseline 6MWD and WHO FC. An unstructured covariance matrix was used to account for the correlation between repeated measurements from the same patient. NT-proBNP is summarized on the FAS (with imputation) by time point and treatment group using descriptive statistics as well as geometric means and CVs. The ratio of Week 12 to baseline NT-proBNP is summarized similarly. The ratio versus baseline in NT-proBNP was log-transformed and analyzed using an ANCOVA with covariates for treatment group, background PAH-specific therapy at baseline (Yes/No as per IXRS, randomization stratification factor), region (Europe/North America/Latin America as per IXRS, randomization stratification factor) and baseline log NT-proBNP.
Supportive/sensitivity analyses: The main MMRM model analysis for 6MWD was also performed without stratification factors. […]

patients with PoPH [2] = assay: PORTICO: hepatic venous pressure gradient by hepatic vein catheterization; assay type: in vivo, human; settings: macitentan group n=15, no TIPS
Method: (ii) Hemodynamic measurements—hepatic vein catheterization: HVPG, the difference between portal pressure and hepatic pressure, was measured by HVC at Baseline (Visit 1/Screening) and Week 12, or at permanent discontinuation of DB study treatment if prior to Week 12 (at the investigator's discretion). Where possible, HVPG was measured at the same time as RHC. The second measurement during the study was required to be performed within 1 week prior to EOT-DB if it was not possible to perform the HVC on the same day as the RHC. HVPG measurements were performed after at least 4 hours of fasting, at rest, in the supine position, under local anesthesia and mild sedation. A catheter introducer was placed into the right jugular vein (or femoral) using the Seldinger technique. It was used to advance a balloon-tipped catheter into the main right hepatic vein for repeated measurements of wedged (occluded) and free hepatic venous pressures. Intravascular pressures were measured using highly sensitive pressure transducers, calibrated before each measurement. HVPG was calculated as the difference between wedged and free hepatic venous pressures. […] The mean of these two measurements was considered final. […]

[3] = 10 mg o.d., FAS with imputation, N=43
[4] = MTS without imputation, macitentan in both DB and OL periods
[5] = MTS without imputation, macitentan only in OL period (DB placebo patients)

CCCNS(=O)(=O)Nc1ncnc(OCCOc2ncc(Br)cn2)c1-c1ccc(Br)cc1 [macitentan, N-[5-(4-Bromophenyl)-6-[2-[(5-bromo-2-pyrimidinyl)oxy]ethoxy]-4-pyrimidinyl]-N′-propylsulfamide]
6MWD at Week 4, mean ± SD (patients with PoPH [1]; [3]): 392.5 ± 93.74 m
6MWD at Week 8, mean ± SD (patients with PoPH [1]; [3]): 390.3 ± 99.35 m
6MWD at Week 12, mean ± SD (patients with PoPH [1]; [3]): 392.2 ± 98.46 m
Change from baseline to Week 4 in 6MWD, mean ± SD (patients with PoPH [1]; [3]): 6.7 ± 44.55 m
Change from baseline to Week 8 in 6MWD, mean ± SD (patients with PoPH [1]; [3]): 4.5 ± 67.40 m
Change from baseline to Week 12 in 6MWD, mean ± SD (patients with PoPH [1]; [3]): 6.4 ± 65.74 m
LS mean difference (macitentan-placebo), change in 6MWD to Week 12, ANCOVA sensitivity analysis (patients with PoPH [1]; FAS): 10.05 m
Difference in LS means macitentan-placebo, change in 6MWD at Week 4 (patients with PoPH [1]; MMRM, FAS): 23.02 m
Difference in LS means macitentan-placebo, change in 6MWD at Week 8 (patients with PoPH [1]; MMRM, FAS): 14.47 m
Difference in LS means macitentan-placebo, change in 6MWD at Week 12 (patients with PoPH [1]; MMRM, FAS): 9.73 m
Difference in LS means macitentan-placebo, change in 6MWD, overall (patients with PoPH [1]; MMRM, FAS, Weeks 4-12 overall): Overall: 15.74 m
Mean (±SD) change from baseline in 6MWD at Week 4 (patients with PoPH [1]; [4]): 7.0±45.62 m
Mean (±SD) change from baseline in 6MWD at Week 24 (patients with PoPH [1]; [4]): 22.0±42.55 m
Mean (±SD) change from macitentan baseline in 6MWD at Week 4 (patients with PoPH [1]; [5]): 11.5±31.67 m
Mean (±SD) change from macitentan baseline in 6MWD at Week 12 (patients with PoPH [1]; [5]): 13.9±39.27 m
Mean (±SD) observed difference at Week 12 (macitentan-placebo) in 6MWD (patients with PoPH [1]; no imputation): 18.4 m
Increase in walk distance from baseline to Week 24 (patients with PoPH [1]; patients originally randomised to macitentan, followed into open-label period): 20 m
HVPG (central review) mean change from baseline at Week 12 (patients with PoPH [2]): −0.5 mmHg
